Results from US20250009743A1, “METHODS OF TREATING CANCERS USING STING AGONISTS” (Dana-Farber Cancer Institute, Inc., priority 2021, published 2025).

Experiments:
PBM-R tumors = test: Flow cytometry of tumor-infiltrating immune cells in PBM-R tumor-bearing mice; format: in vivo, mouse; settings: 14 days; for STING pathway and activated (CD86^+) conventional DCs (cDCs): FIG. 23D
Procedure: Tumors were chopped and digested in collagenase buffer as described previously (Ding et al., 2018 Cell Rep 25, 2972-2980.e2975). Single cell suspensions of tumor and ascites were obtained by filtering through 70 um strainers and treated with 1× eBioscience RBC lysis buffer (Thermo Fisher) before staining. Single cells suspensions were incubated with LIVE/DEAD Fixable Aqua Dead Cell Stain (Life Technologies, Cat #L34965) for 30 min and then blocked with anti-CD16/32 (Biolegend, clone 93) for 20 min on ice. Samples were then incubated with appropriate antibodies for 30 min on ice. Foxp3 staining buffer set (eBioscience, Cat #00-5523-00) was applied for intracellular markers staining. For the intracellular cytokine analysis, cells were stimulated with Leukocyte Activation Cocktail (BD Biosciences, Cat #550583) at 37° C. for 4-6 hours prior to FACS staining. The following antibodies were used in this study: antibodies were purchased from BioLegend unless otherwise indicated: CD45 (clone 30-F11), CD3ε (clone 145-2C11), CD4 (clone RM4-5), CD8 (clone 53-6.7), CD44 (clone IM7), CD62L (MEL-14), CD25 (PC61), IFNγ (clone XMG1.2), TNFα (clone MP6-XT22), CD11b (clone M1/70), CD11c […], F4/80 (clone BM8), Ly-6C (clone HK1.4), Ly-6G (clone 1A8), MHC-II (clone M5/114.15.2), CD80 (clone 16-10A1), CD86 (clone GL-1), MHC-I (clone KH114), FoxP3 (clone FJK-16 s; eBioscience), Phospho-IRF-3 (Ser396) (clone D601M, Cell signaling technology) and Phospho-TBK1/NAK (Ser172) (clone D52C2, Cell signaling technology). The following human antibodies were used in this study: cell surface markers includes CD45 (clone H130), CD11b (clone M1/70), CD11c (clone Bu15), CD80 (clone 2D10), CD86 (clone IT2.2), CD14 (clone 63D3), CD15 […], HLA-DR (clone L243) and HLA-A,B,C (clone W6/32); intracellular markers include CD163 (clone GHI/61), CD68 (clone Y1/82A) and CD206 (clone 15-2). Flow cytometry was performed on an LSRII (BD Biosciences) or Fortessa HTS (BD Biosciences) at DFCI Flow Cytometry Core, and all the data were analyzed using FlowJo software.

[1] = test system: BMDMs generated from FVB/NJ mice; test: Polarization of mouse BMDMs cultured in PBM / PBM-R conditioned medium; format: cell-based
Procedure: For ex vivo culture of mouse macrophages, bone marrow cells were isolated from FVB/NJ mice and cultured in DMEM containing 10% FBS, 55 μM 2-Mercaptoethanol and 20 ng/ml M-CSF. BMDMs (bone marrow derived macrophages) were harvested on day 7 and further cultured in 2.0 ml control medium (90% DMEM, 10% FBS, 55 μM 2-Mercaptoethanol and 5 ng/ml M-CSF) described above or the medium containing 50% tumor cell conditioned medium for 72 hrs before analysis. For the tumor cell conditioned medium, about 3×10^5 tumor cells were cultured in 6-well plate for 24 hrs and then treated with DMSO or olaparib. After 24 hrs incubation with DMSO or olaparib, the tumor cells were washed twice with PBS and cultured in DMEM containing 10% FBS for 48 hrs. The tumor cell conditioned medium was collected by centrifugation at 1,500 g for 5 min at 4° C. to remove all the debris and cells. For the cytokine blocking experiment, monoclonal antibodies that specific to each cytokine were added to the tumor cell conditioned medium before it was applied to culture macrophages.

| Structure (SMILES) | STING pathway and activated (CD86^+) conventional DCs (cDCs) (PBM-R tumors) | M2-like TAM polarization of BMDMs by CM from olaparib-treated PBM cells (PBM-OLA-CM) ([1]; FIG. 19E) | proportion of TAMs (PBM-R tumors; FIG. 23B) | ratio of M1/M2 (PBM-R tumors; FIG. 23C) | M1/M2 ratio ([1]; BMDMs in 50% PBM-R-CM, ADU-S100 10 μM or MSA-2 5 ug/ml, two days, FIG. 21B) |
| --- | --- | --- | --- | --- | --- |
| O=C(c1cc(Cc2n[nH]c(=O)c3ccccc23)ccc1F)N1CCN(C(=O)C2CC2)CC1 [olaparib] | activated the STING pathway and increased tumor-infiltrating activated (CD86^+) conventional DCs | stronger effect on M2-like TAM polarization of BMDMs than PBM-CM |  |  |  |
| COc1cc2cc(C(=O)CCC(=O)O)sc2cc1OC [MSA-2] | activated the STING pathway and increased tumor-infiltrating activated (CD86^+) conventional DCs |  | dramatically decreased | increase | significantly increased |
